Source: patent publication US10123993B2, “Cyclic ureas as inhibitors of rock” (BRISTOL-MYERS SQUIBB COMPANY, priority 2015, dated 2018)
Structures can show the parent of a compound that is named as a salt.

Biological target: ROCK2 (Homo sapiens, UniProt O75116)
Experiment: ROCK2 kinase inhibition assay (Caliper LABCHIP, FITC peptide substrate)
Format: biochemical
Settings: 5 μM ATP, 1.5 μM peptide substrate; value ranges
Outline: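 Rho kinase with 5 μM ATP and 1.5 μM FITC-AHA-AKRRRLSSLRA-OH peptide in HEPES pH 7.5, 20 mM MgCl2, 0.015% Brij-35, 4 mM DTT, DMSO <2%. EDTA stop; phospho and non-phospho peptide separated on LabChip. IC50 from dose-response fit.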

Sequence of ROCK2 (O75116 whole entry, species assumed): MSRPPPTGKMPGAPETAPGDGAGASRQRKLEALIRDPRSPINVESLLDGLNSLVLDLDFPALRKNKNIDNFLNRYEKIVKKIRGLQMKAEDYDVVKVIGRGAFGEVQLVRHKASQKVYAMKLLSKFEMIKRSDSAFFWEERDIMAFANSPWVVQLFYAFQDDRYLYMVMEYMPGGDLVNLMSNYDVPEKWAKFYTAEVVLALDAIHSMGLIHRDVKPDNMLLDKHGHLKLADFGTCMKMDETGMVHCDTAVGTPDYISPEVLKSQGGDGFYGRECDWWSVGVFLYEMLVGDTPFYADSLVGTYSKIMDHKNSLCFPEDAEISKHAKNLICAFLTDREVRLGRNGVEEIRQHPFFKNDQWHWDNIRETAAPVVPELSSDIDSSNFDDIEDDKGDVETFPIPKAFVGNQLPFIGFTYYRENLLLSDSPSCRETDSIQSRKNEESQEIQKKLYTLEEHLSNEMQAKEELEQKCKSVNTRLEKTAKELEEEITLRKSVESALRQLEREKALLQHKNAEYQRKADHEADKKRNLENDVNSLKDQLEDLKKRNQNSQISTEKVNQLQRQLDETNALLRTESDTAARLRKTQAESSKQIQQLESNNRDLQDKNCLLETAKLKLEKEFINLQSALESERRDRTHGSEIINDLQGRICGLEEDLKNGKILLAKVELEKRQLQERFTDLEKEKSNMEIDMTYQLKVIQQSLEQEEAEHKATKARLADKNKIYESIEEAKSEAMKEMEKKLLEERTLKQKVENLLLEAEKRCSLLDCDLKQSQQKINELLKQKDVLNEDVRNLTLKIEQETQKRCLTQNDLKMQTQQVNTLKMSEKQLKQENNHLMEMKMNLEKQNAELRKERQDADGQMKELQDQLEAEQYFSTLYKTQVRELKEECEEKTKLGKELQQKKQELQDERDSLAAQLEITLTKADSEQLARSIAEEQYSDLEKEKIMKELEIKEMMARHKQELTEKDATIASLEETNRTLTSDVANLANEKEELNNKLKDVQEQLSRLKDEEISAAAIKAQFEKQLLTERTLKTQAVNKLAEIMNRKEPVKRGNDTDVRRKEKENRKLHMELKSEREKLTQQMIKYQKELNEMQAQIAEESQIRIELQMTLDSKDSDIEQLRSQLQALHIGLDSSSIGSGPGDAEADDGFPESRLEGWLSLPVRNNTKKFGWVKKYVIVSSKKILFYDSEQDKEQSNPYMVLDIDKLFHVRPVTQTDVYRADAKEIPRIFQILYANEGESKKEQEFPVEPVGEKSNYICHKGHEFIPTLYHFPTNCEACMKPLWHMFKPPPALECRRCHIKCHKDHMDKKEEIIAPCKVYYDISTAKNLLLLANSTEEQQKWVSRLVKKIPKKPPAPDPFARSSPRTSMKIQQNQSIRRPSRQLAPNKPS

| IC50 [nM] | SMILES |
| --- | --- |
| 20.1 to 200 | CCOC(=O)C1CN(Cc2ccccc2)C(=O)N1c1ccc(-c2cn[nH]c2)cc1 (stereo not drawn) [Example 29, Ethyl 3-(4-(1H-pyrazol-4-yl)phenyl)-1-benzyl-2-oxoimidazolidine-4-carboxylate] |
| 20.1 to 200 | O=C1N(Cc2ccccc2)CC(CO)N1c1ccc(-c2cn[nH]c2)cc1 (stereo not drawn) [Example 30, 3-(4-(1H-Pyrazol-4-yl)phenyl)-1-benzyl-4-(hydroxymethyl)imidazolidin-2-one] |
| 20.1 to 200 | COc1cc(N2CCN(Cc3ccccc3-c3cn[nH]c3)C2=O)ccc1-c1cn[nH]c1 [Example 31, 1-(2-(1H-Pyrazol-4-yl)benzyl)-3-(3-methoxy-4-(1H-pyrazol-4-yl)phenyl)imidazolidin-2-one, TFA] |
| 200 to 2000 | O=C(O)C1CN(c2ccc(-c3cn[nH]c3)cc2)C(=O)N1Cc1cccc(F)c1 (stereo not drawn) [Example 32, 1-(4-(1H-Pyrazol-4-yl)phenyl)-3-(3-fluorobenzyl)-2-oxoimidazolidine-4-carboxylic Acid] |
| 200 to 2000 | O=C(O)C1CN(Cc2cccc(F)c2)C(=O)N1c1ccc(-c2cn[nH]c2)cc1 (stereo not drawn) [Example 33, 3-(4-(1H-Pyrazol-4-yl)phenyl)-1-(3-fluorobenzyl)-2-oxoimidazolidine-4-carboxylic Acid] |
| 20.1 to 200 | COC(=O)C1CN(Cc2cccc(F)c2)C(=O)N1c1ccc(-c2cn[nH]c2)cc1 (stereo not drawn) [Example 34, Methyl 3-(4-(1H-pyrazol-4-yl)phenyl)-1-(3-fluorobenzyl)-2-oxoimidazolidine-4-carboxylate] |
| 20.1 to 200 | COc1cccc(CN2CC(C(=O)O)N(c3ccc(-c4cn[nH]c4)cc3)C2=O)c1 (stereo not drawn) [Example 35, 3-(4-(1H-Pyrazol-4-yl)phenyl)-1-(3-methoxybenzyl)-2-oxoimidazolidine-4-carboxylic Acid] |
| 2.1 to 20 | CCOC(=O)C1CN(Cc2cccc(OC)c2)C(=O)N1c1ccc(-c2cn[nH]c2)cc1 (stereo not drawn) [Example 36, Ethyl 3-(4-(1H-pyrazol-4-yl)phenyl)-1-(3-methoxybenzyl)-2-oxoimidazolidine-4-carboxylate] |
| 2.1 to 20 | O=C1N(c2ccc(-c3cn[nH]c3)cc2)CC(CO)N1Cc1ccccc1 (stereo not drawn) [Example 38, 1-(4-(1H-Pyrazol-4-yl)phenyl)-3-benzyl-4-(hydroxymethyl)imidazolidin-2-one] |
| 2.1 to 20 | O=C1N(Cc2cccc(F)c2)CC(CO)N1c1ccc(-c2cn[nH]c2)cc1 (stereo not drawn) [Example 39, 3-(4-(1H-Pyrazol-4-yl)phenyl)-1-(3-fluorobenzyl)-4-(hydroxymethyl)imidazolidin-2-one] |
| < 2 | COc1cccc(CN2C(=O)N(c3ccc(-c4cn[nH]c4)c(OC)c3)CC2CO)c1 (stereo not drawn) [Example 40, 4-(Hydroxymethyl)-1-(3-methoxy-4-(1H-pyrazol-4-yl)phenyl)-3-(3-methoxybenzyl)imidazolidin-2-one] |

Further lines, the compound ahead of its results:

| SMILES | IC50 [nM] |
| --- | --- |
| COc1cc(-c2cn[nH]c2)ccc1N1CCN(Cc2cccc(F)c2)C1=O [Example 9, 1-(3-Fluorobenzyl)-3-(2-methoxy-4-(1H-pyrazol-4-yl)phenyl)imidazolidin-2-one] | 20.1 to 200 |
| COc1cccc(CN2CCN(c3ccc(-c4cn[nH]c4)cc3OC)C2=O)c1 [Example 10, 1-(2-Methoxy-4-(1H-pyrazol-4-yl)phenyl)-3-(3-methoxybenzyl)imidazolidin-2-one] | 2.1 to 20 |
| COc1cc(-c2cn[nH]c2)ccc1N1CCN(CCc2ccccc2F)C1=O [Example 11, 1-(2-Fluorophenethyl)-3-(2-methoxy-4-(1H-pyrazol-4-yl)phenyl)imidazolidin-2-one] | 20.1 to 200 |
| COc1cc(-c2cn[nH]c2)ccc1N1CCN(Cc2ccccc2)C1=O [Example 12, 1-Benzyl-3-(2-methoxy-4-(1H-pyrazol-4-yl)phenyl)imidazolidin-2-one] | 200 to 2000 |
| COc1cccc([C@@H](C)N2CCN(c3ccc(-c4cn[nH]c4)c(OC)c3)C2=O)c1 [Example 13, (R)-1-(3-Methoxy-4-(1H-pyrazol-4-yl)phenyl)-3-(1-(3-methoxyphenyl)ethyl)imidazolidin-2-one] | < 2 |
| COc1cccc([C@@H](C)N2CCN(c3ccc(-c4cn[nH]c4)cc3OC)C2=O)c1 [Example 14, (R)-1-(2-Methoxy-4-(1H-pyrazol-4-yl)phenyl)-3-(1-(3-methoxyphenyl)ethyl)imidazolidin-2-one] | 20.1 to 200 |
| COc1ccc(F)c(CN2CCN(c3ccc(-c4cn[nH]c4)c(OC)c3)C2=O)c1 [Example 15, 1-(2-Fluoro-5-methoxybenzyl)-3-(3-methoxy-4-(1H-pyrazol-4-yl)phenyl)imidazolidin-2-one] | 20.1 to 200 |
| COc1cc(N2CCN(Cc3c(F)cccc3F)C2=O)ccc1-c1cn[nH]c1 [Example 16, 1-(2,6-Difluorobenzyl)-3-(3-methoxy-4-(1H-pyrazol-4-yl)phenyl)imidazolidin-2-one] | 20.1 to 200 |
| COc1cc(N2CCN(Cc3ccccc3F)C2=O)ccc1-c1cn[nH]c1 [Example 17, 1-(2-Fluorobenzyl)-3-(3-methoxy-4-(1H-pyrazol-4-yl)phenyl)imidazolidin-2-one] | 20.1 to 200 |
| COc1cc(N2CCN(Cc3ccccc3)C2=O)ccc1-c1cn[nH]c1 [Example 18, 1-Benzyl-3-(3-methoxy-4-(1H-pyrazol-4-yl)phenyl)imidazolidin-2-one] | 20.1 to 200 |
| COc1cccc(C(CC(=O)O)N2CCN(c3ccc(-c4cn[nH]c4)c(OC)c3)C2=O)c1 (stereo not drawn) [Example 19, 3-(3-(3-Methoxy-4-(1H-pyrazol-4-yl)phenyl)-2-oxoimidazolidin-1-yl)-3-(3-methoxyphenyl)propanoic Acid, TFA] | 20.1 to 200 |
| COC(=O)CC(c1cccc(OC)c1)N1CCN(c2ccc(-c3cn[nH]c3)c(OC)c2)C1=O (stereo not drawn) [Example 20, Methyl 3-(3-(3-methoxy-4-(1H-pyrazol-4-yl)phenyl)-2-oxoimidazolidin-1-yl)-3-(3-methoxyphenyl)propanoate] | 200 to 2000 |
| COc1cccc(C(CCO)N2CCN(c3ccc(-c4cn[nH]c4)c(OC)c3)C2=O)c1 (stereo not drawn) [Example 21, 1-(3-Hydroxy-1-(3-methoxyphenyl)propyl)-3-(3-methoxy-4-(1H-pyrazol-4-yl)phenyl)imidazolidin-2-one] | 2.1 to 20 |
| COc1cccc(C(CC(C)(C)O)N2CCN(c3ccc(-c4cn[nH]c4)c(OC)c3)C2=O)c1 (stereo not drawn) [Example 22, 1-(3-Hydroxy-1-(3-methoxyphenyl)-3-methylbutyl)-3-(3-methoxy-4-(1H-pyrazol-4-yl)phenyl)imidazolidin-2-one] | 200 to 2000 |
| CCc1cc(N2CCN(Cc3cccc(OC)c3)C2=O)ccc1-c1cn[nH]c1 [Example 23, 1-(3-Ethyl-4-(1H-pyrazol-4-yl)phenyl)-3-(3-methoxybenzyl)imidazolidin-2-one] | 2.1 to 20 |
| CCc1cc(N2CCN(Cc3cccc(F)c3)C2=O)ccc1-c1cn[nH]c1 [Example 24, 1-(3-Ethyl-4-(1H-pyrazol-4-yl)phenyl)-3-(3-fluorobenzyl)imidazolidin-2-one] | 2.1 to 20 |
| CCc1cc(N2CCN(Cc3ccccc3F)C2=O)ccc1-c1cn[nH]c1 [Example 25, 1-(3-Ethyl-4-(1H-pyrazol-4-yl)phenyl)-3-(2-fluorobenzyl)imidazolidin-2-one] | 20.1 to 200 |
| CCc1cc(N2CCN(Cc3ccccc3)C2=O)ccc1-c1cn[nH]c1 [Example 26, 1-Benzyl-3-(3-ethyl-4-(1H-pyrazol-4-yl)phenyl)imidazolidin-2-one] | 20.1 to 200 |
| CCc1cc(N2CCN(CCc3cccc(OC)c3)C2=O)ccc1-c1cn[nH]c1 [Example 27, 1-(3-Ethyl-4-(1H-pyrazol-4-yl)phenyl)-3-(3-methoxyphenethyl)imidazolidin-2-one, TFA] | 200 to 2000 |
